Reference: patent US20260108546A1 (ELI LILLY AND COMPANY, priority 2024, published 2026)

Target: T1, hGIP-R (Homo sapiens, UniProt P48546)
T1 construct: expressed in transfected cells; host or cells: HEK-293 clonal cell lines
T1 sequence (P48546 22-466): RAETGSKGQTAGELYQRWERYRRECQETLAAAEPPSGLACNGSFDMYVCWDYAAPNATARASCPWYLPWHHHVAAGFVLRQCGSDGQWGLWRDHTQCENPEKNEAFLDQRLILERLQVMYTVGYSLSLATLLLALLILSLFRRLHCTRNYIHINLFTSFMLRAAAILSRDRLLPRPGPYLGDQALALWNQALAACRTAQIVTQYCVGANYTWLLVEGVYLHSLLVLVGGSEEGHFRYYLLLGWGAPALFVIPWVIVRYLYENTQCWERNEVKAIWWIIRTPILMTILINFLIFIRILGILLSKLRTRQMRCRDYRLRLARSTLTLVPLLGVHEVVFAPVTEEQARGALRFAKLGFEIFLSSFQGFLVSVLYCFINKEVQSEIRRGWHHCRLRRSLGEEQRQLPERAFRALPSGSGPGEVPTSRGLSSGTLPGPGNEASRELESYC
Assay: Functional hGIP-R Assay (cAMP formation, HTRF)
Assay type: cell-based
Conditions: for Emax: cAMP efficacy, percent of maximal response to GIP(1-42)OH, 37° C., 0.1% bovine casein, arithmetic mean ± SEM; for EC50: cAMP potency, HEK-293 cells expressing hGIP-R, incubated at 37° C. in the presence of 0.1% bovine casein, geometric mean, read-out: Human GIP-R EC50, nM (SEM, n)
Procedure, shortened: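 Relative EC50 and Emax came from four-parameter logistic fits of cAMP as a percent of the human GIP (1-42) OH maximal response. The cAMP was measured by competitive HTRF after 30 min, 37 °C compound exposure of hGIP-R HEK-293 clones in IBMX (250 μM)-containing medium.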

Question: Which Emax does the source give for `Cc1ncc(-c2cc(C(F)(F)F)nn2CC(C)(C)NC(=O)[C@@H](Cc2cnn(C(F)F)c2)N2CCC3(CC3c3ccc(-c4cnc5nn(C)cc5c4)nc3C(F)(F)F)C2=O)cn1` (single isomer, unassigned; isomer 1) [Example 112] here?
Answer: 62 ± 0.9%

Question: What about the EC50 of the same compound?
Answer: 3.21 nM

Question: For `Cn1cc(C[C@@H](NC(=O)[C@H]2C[C@@H]2c2ccc(-c3cnc4nn(C)cc4c3)cc2)C(=O)NC(C)(C)Cn2nc(C(F)(F)F)cc2-c2cnn3c2CN(C(=O)OC(C)(C)C)CC3)cn1` [Example 56, tert-Butyl 3-(1-(2-methyl-2-((R)-3-(1-methyl-1H-pyrazol-4-yl)-2-((1S,2S)-2-(4-(2-methyl-2H-pyrazolo[3,4-b]pyridin-5-yl)phenyl)cyclopropane-1-carboxamido)propanamido)propyl)-3-(trifluoromethyl)-1H-pyrazol-5-yl)-6,7-dihydropyrazolo[1,5-a]pyrazine-5(4H)-carboxylate], which Emax is on record?
Answer: 113 ± 10.7%

Question: And the EC50?
Answer: 84.6 nM

Question: With `Cn1cc2cc(-c3ccc([C@H]4C[C@@]45CCN([C@H](Cc4cnn(C(F)F)c4)C(=O)NC(C)(C)Cn4nc(C(F)(F)F)cc4-c4ccn(C(F)F)c(=O)c4)C5=O)c(F)c3)cnc2n1` [Example 134, (R)-3-(1-(Difluoromethyl)-1H-pyrazol-4-yl)-N-(1-(5-(1-(difluoromethyl)-2-oxo-1,2-dihydropyridin-4-yl)-3-(trifluoromethyl)-1H-pyrazol-1-yl)-2-methylpropan-2-yl)-2-((1S,3R)-1-(2-fluoro-4-(2-methyl-2H-pyrazolo[3,4-b]pyridin-5-yl)phenyl)-4-oxo-5-azaspiro[2.4]heptan-5-yl)propanamide] as the compound, how does the Emax read?
Answer: 57.4 ± 0.103%

Question: What about the EC50 of the same compound?
Answer: 7.63 nM

Question: How did the Emax turn out when `Cn1cc(C[C@@H](NC(=O)[C@H]2C[C@@H]2c2ccc(-c3cnc4nn(C)cc4c3)cc2)C(=O)NC(C)(C)Cn2nc(C(F)(F)F)cc2-c2ccn(C)c(=O)c2)cn1` [Example 52, (1S,2S)-N—((R)-1-((2-Methyl-1-(5-(1-methyl-2-oxo-1,2-dihydropyridin-4-yl)-3-(trifluoromethyl)-1H-pyrazol-1-yl)propan-2-yl)amino)-3-(1-methyl-1H-pyrazol-4-yl)-1-oxopropan-2-yl)-2-(4-(2-methyl-2H-pyrazolo[3,4-b]pyridin-5-yl)phenyl)cyclopropane-1-carboxamide] was run?
Answer: 98.4 ± 3.96%

Question: What about the EC50 of the same compound?
Answer: 53 nM

Question: With `[2H]C([2H])([2H])N(C(=O)[C@H]1C[C@@H]1c1cnc(-c2cnc3nn(C)cc3c2)nc1C(F)(F)F)[C@H](Cc1cnn(C(F)F)c1)C(=O)NC(C)(C)Cn1nc(C(F)(F)F)cc1-c1cc(F)c(=O)n(C)c1` [Example 139, (1S,2S)-N-((R)-3-(1-(Difluoromethyl)-1H-pyrazol-4-yl)-1-((1-(5-(5-fluoro-1-methyl-6-oxo-1,6-dihydropyridin-3-yl)-3-(trifluoromethyl)-1H-pyrazol-1-yl)-2-methylpropan-2-yl)amino)-1-oxopropan-2-yl)-N-(methyl-d3)-2-(2-(2-methyl-2H-pyrazolo[3,4-b]pyridin-5-yl)-4-(trifluoromethyl)pyrimidin-5-yl)cyclopropane-1-carboxamide] as the compound, how does the Emax read?
Answer: 99.7 ± 3.49%

Question: What about the EC50 of the same compound?
Answer: 24.8 nM

Question: `Cc1cn2cc(-c3ccc(C4CC45CCN([C@H](Cc4cnn(C(F)F)c4)C(=O)NC(C)(C)Cn4nc(C(F)(F)F)cc4-c4ccn(C6CC6)c(=O)c4)C5=O)c(C4CC4)n3)cnc2n1` (single isomer, unassigned) [Example 167] was tested. Which Emax did it give?
Answer: 92.1 ± 0.883%

Question: What about the EC50 of the same compound?
Answer: 0.753 nM

Question: With `Cn1cc(-c2cc(C(F)(F)F)nn2CC(C)(C)NC(=O)[C@@H](Cc2cnn(C(F)F)c2)N2CC[C@@]3(C[C@@H]3c3ccc(-c4cnc5nn(CCO)cc5c4)cc3F)C2=O)cc(F)c1=O` (single isomer, unassigned; isomer 1) [Example 107] as the compound, how does the Emax read?
Answer: 108 ± 0.709%

Question: What about the EC50 of the same compound?
Answer: 36.2 nM

Question: For `Cn1cc2cc(-c3ccc([C@H]4C[C@@H]4C(=O)N[C@H](Cc4cnc5ncccn45)C(=O)NC(C)(C)Cn4nc(C(F)(F)F)cc4-c4cn[nH]n4)cc3)cnc2n1` [Example 69, (1S,2S)-N-((R)-1-((1-(5-(2H-1,2,3-Triazol-4-yl)-3-(trifluoromethyl)-1H-pyrazol-1-yl)-2-methylpropan-2-yl)amino)-3-(imidazo[1,2-a]pyrimidin-3-yl)-1-oxopropan-2-yl)-2-(4-(2-methyl-2H-pyrazolo [3,4-b]pyridin-5-yl)phenyl)cyclopropane-1-carboxamide], which Emax is on record?
Answer: 87.8 ± 8.06%

Question: And the EC50?
Answer: 34 nM

Question: Which results are given for `Cn1cc(C[C@H](C(=O)NC(C)(C)Cn2nc(C(F)(F)F)cc2-c2ccc(=O)n(C)c2)N2CC[C@@]3(C[C@@H]3c3ccc(-c4cnc5nn(C)cc5c4)cc3)C2=O)cn1` [Example 98, (R)—N-(2-Methyl-1-(5-(1-methyl-6-oxo-1,6-dihydropyridin-3-yl)-3-(trifluoromethyl)-1H-pyrazol-1-yl)propan-2-yl)-3-(1-methyl-1H-pyrazol-4-yl)-2-((1R,3R)-1-(4-(2-methyl-2H-pyrazolo[3,4-b]pyridin-5-yl)phenyl)-4-oxo-5-azaspiro[2.4]heptan-5-yl)propanamide]?
Answer: Emax: 110 ± 3.22%; EC50: 35.5 nM

Question: Which Emax does the source give for `Cc1cn2cc(-c3ccc([C@H]4C[C@@H]4C(=O)N[C@H](Cc4cnc5ncccn45)C(=O)NC(C)(C)Cn4cc(C(F)(F)F)cn4)cc3)cnc2n1` [Example 83, (1S,2S)-N-((R)-3-(Imidazo[1,2-a]pyrimidin-3-yl)-1-((2-methyl-1-(4-(trifluoromethyl)-1H-pyrazol-1-yl)propan-2-yl)amino)-1-oxopropan-2-yl)-2-(4-(2-methylimidazo[1,2-a]pyrimidin-6-yl)phenyl)cyclopropane-1-carboxamide] here?
Answer: 95.4 ± 7.12%

Question: What about the EC50 of the same compound?
Answer: 44.1 nM

Question: How did the Emax turn out when `CN1CCC(n2cc(C(F)(F)F)nc2CC(C)(C)NC(=O)[C@@H](Cc2cnn(C(F)F)c2)N2CC[C@@]3(C[C@@H]3c3ccc(-c4cnc5nc(C6CC6)cn5c4)cc3Cl)C2=O)C1=O` (single isomer, unassigned) [Example 146] was run?
Answer: 120 ± 5.11%

Question: What about the EC50 of the same compound?
Answer: 0.234 nM

Question: For `Cn1cc(C[C@@H](NC(=O)[C@H]2C[C@@H]2c2ccc(-c3cnc4nc(C(F)(F)F)cn4c3)cc2)C(=O)NC(C)(C)Cn2nc(C(F)(F)F)cc2-c2cn[nH]n2)cn1` [Example 26, (1S,2S)-N-((R)-1-((1-(5-(2H-1,2,3-Triazol-4-yl)-3-(trifluoromethyl)-1H-pyrazol-1-yl)-2-methylpropan-2-yl)amino)-3-(1-methyl-1H-pyrazol-4-yl)-1-oxopropan-2-yl)-2-(4-(2-(trifluoromethyl)imidazo [1,2-a]pyrimidin-6-yl)phenyl) cyclopropane-1-carboxamide], which Emax is on record?
Answer: 132 ± 15.5%

Question: And the EC50?
Answer: 17.4 nM

Question: For `Cn1cc(-c2ccc([C@H]3C[C@@]34CCN([C@H](Cc3cnn(C(F)F)c3)C(=O)NC(C)(C)Cn3nc(C(F)(F)F)cc3-c3cn[nH]n3)C4=O)c(Cl)c2)cnc1=O` [Example 154, (R)—N-(1-(5-(2H-1,2,3-Triazol-4-yl)-3-(trifluoromethyl)-1H-pyrazol-1-yl)-2-methylpropan-2-yl)-2-((1S,3R)-1-(2-chloro-4-(1-methyl-2-oxo-1,2-dihydropyrimidin-5-yl)phenyl)-4-oxo-5-azaspiro[2.4]heptan-5-yl)-3-(1-(difluoromethyl)-1H-pyrazol-4-yl)propanamide], which Emax is on record?
Answer: 74.2 ± 2.83%

Question: And the EC50?
Answer: 5.24 nM

Question: For `Cn1cc(-c2cc(C(F)(F)F)nn2CC(C)(C)NC(=O)[C@@H](Cc2cnn(C(F)F)c2)N2CC[C@@]3(C[C@@H]3c3ccc(-c4cnc5nc(C(C)(C)O)ccc5c4)cc3)C2=O)ccc1=O` (single isomer, unassigned; isomer 1) [Example 104], which Emax is on record?
Answer: 89 ± 1.12%

Question: What about the EC50 of the same compound?
Answer: 54.6 nM

Question: How did the Emax turn out when `Cc1nc(-c2cnc3nc(C4CC4)cn3c2)ccc1[C@H]1C[C@@]12CCN([C@H](Cc1cnn(C(F)F)c1)C(=O)NC(C)(C)Cn1nc(C(F)(F)F)cc1-c1ccn(C3CC3)c(=O)c1)C2=O` [Example 145, (R)—N-(1-(5-(1-Cyclopropyl-2-oxo-1,2-dihydropyridin-4-yl)-3-(trifluoromethyl)-1H-pyrazol-1-yl)-2-methylpropan-2-yl)-2-((1R,3R)-1-(6-(2-cyclopropylimidazo[1,2-a]pyrimidin-6-yl)-2-methylpyridin-3-yl)-4-oxo-5-azaspiro[2.4]heptan-5-yl)-3-(1-(difluoromethyl)-1H-pyrazol-4-yl)propanamide] was run?
Answer: 96.6 ± 2.37%

Question: And the EC50?
Answer: 0.727 nM

Question: What does the source list for `[2H]C([2H])([2H])n1cc(C[C@H](C(=O)NC(C)(C)Cn2nc(C(F)(F)F)cc2-c2ccc(C(C)(C)O)nc2)N2CC[C@@]3(C[C@@H]3c3ccc(-c4cnc5nn(CC)cc5c4)nc3C)C2=O)cn1` [Example 189, (R)-2-((1R,3R)-1-(6-(2-Ethyl-2H-pyrazolo[3,4-b]pyridin-5-yl)-2-methylpyridin-3-yl)-4-oxo-5-azaspiro[2.4]heptan-5-yl)-N-(1-(5-(6-(2-hydroxypropan-2-yl)pyridin-3-yl)-3-(trifluoromethyl)-1H-pyrazol-1-yl)-2-methylpropan-2-yl)-3-(1-(methyl-d3)-1H-pyrazol-4-yl)propanamide]?
Answer: Emax: 61 ± 0.6%; EC50: 1.3 nM
